Assay results from patent US10150772B2, “Crystalline forms of PARP inhibitors” (priority 2014, dated 2018).
Counter-ions that a name gives are not always drawn. Like-named read-outs stand apart in the source and are kept apart here.

What was measured:
[1] = Estimation of water solubility; format: physicochemical; details: visual inspection, 10 mg sample
Experimental: Estimation of Water Solubility: Ten mg portions of the salt forms to be studied were weighed into a standard 1.5 mL HPLC vial (32×11.6 mm). […] An estimation of solubility was based on the volume of water necessary to dissolve the known weight of sample.

[2] = Dynamic vapor sorption (DVS), water sorption; format: physicochemical; details: DVS, 25° C.
Experimental: Dynamic Vapor Sorption (DVS):
DVS experiments have been carried out using the DVS-HT instrument (Surface Measurement Systems, London, UK). This instrument measures the uptake and loss of vapor gravimetrically using a recording ultra-microbalance with a mass resolution of ±0.1 μg. The vapor partial pressure (±1.0%) around the sample is controlled by mixing saturated and dry carrier gas streams using electronic mass flow controllers. The desired temperature is maintained at ±0.1° C. The samples (1-10 mg) were placed into the DVS-HT and DVS-1 instruments at the desired temperature.
The sample was loaded and unloaded at 40% RH and 25° C. (typical room conditions). A moisture sorption isotherm was performed as outlined below (2 scans giving 1 complete cycle). The software uses a least squares minimization procedure together with a model of the mass relaxation, to predict an asymptotic value. The measured mass equilibration value must be within 2% of that predicted by the software before proceeding to the next % RH value. The minimum equilibration time was set to 1 hour and the maximum to 4 hours.

[3] = format: physicochemical; parameters: DSC: unit not given beside the values; details: 40° C. and 75% RH; for Stability to the test conditions (in words): 28 day test period
Experimental: Identity, Assay, and Purity by HPLC
Testing was performed on a calibrated and validated Agilent 1200 Rapid Resolution High Performance Liquid Chromatography (HPLC) system designated LC-0430-AD or LC-418-1D. The system comprises a binary SL pump, degasser, high performance autosampler SL with a fraction collector, thermostated column compartment with a 2 valve column switcher, and a DAD SL detector. All standard solutions and samples were prepared in Class A glass volumetric flasks and were placed in autosampler vials. Standard weighings were done using a calibrated Mettler analytical balance. The sample preparations were centrifuged using an Eppendorf microcentrifuge. The primary chromatography data was acquired and integrated using Empower 2 software. Microsoft Office Excel 2003 was used for the calculation of results.
Solid State Stability of Salts at 40° C. and 75% Humidity:
Samples of the form to be studied (15-20 mg) were weighed into standard 1.5 mL HPLC vials (32×11.6 mm) and stored uncapped for 0, 7, 14 and 28 days in a 40° C. and 75% RH stability chamber. Samples were removed on the indicated day and capped. Measurements of XRPD, DSC, TGA and HPLC Identity by Purity and Assay measurements were completed on each time point sample.

COc1cccc2[nH]c3c4c(c5c(c3c12)C(=O)N(CN1CCN(C)CC1)C5=O)CCC4 [Sample 30-2]
Estimated Water Solubility [1]: >100 mg/mL

COc1cccc2[nH]c3c4c(c5c(c3c12)C(=O)N(CN1CCN(C)CC1)C5=O)CCC4 [Sample 30-4]
Estimated Water Solubility [1]: >100 mg/mL

COc1cccc2[nH]c3c4c(c5c(c3c12)C(=O)N(CN1CCN(C)CC1)C5=O)CCC4 [Acetate Salt, Form A1.5]
DVS sorption behaviour (in words) [2]: steady weight loss during the drying curves with no equilibration reached | Stability to the test conditions (in words) [3]: changes throughout the 28 day test period | HPLC Purity ([3]; day 0): 99.7% | TGA ([3]; day 0): 21.5% | COMPOUND A Assay ([3]; day 0, HPLC): 78.1% | COMPOUND B Assay ([3]; day 0, HPLC): 0.2% | HPLC Purity ([3]; day 7): 99.6% | TGA ([3]; day 7): 20.0% | XRPD ([3]; day 7): Shows hydrate | COMPOUND A Assay ([3]; day 7, HPLC): 70.2% | COMPOUND B Assay ([3]; day 7, HPLC): 0.1% | HPLC Purity ([3]; day 14): 99.5% | TGA ([3]; day 14): 16.1% | XRPD ([3]; day 14): Shows hydrate | COMPOUND A Assay ([3]; day 14, HPLC): 84.2% | COMPOUND B Assay ([3]; day 14, HPLC): 0.2% | HPLC Purity ([3]; day 28): 99.6% | TGA ([3]; day 28): 9.6% | XRPD ([3]; day 28): Shows hydrate, | COMPOUND A Assay ([3]; day 28, HPLC): 90.9% | COMPOUND B Assay ([3]; day 28, HPLC): 0.3%

COc1cccc2[nH]c3c4c(c5c(c3c12)C(=O)N(CN1CCN(C)CC1)C5=O)CCC4 [L-Malate Salt, Form A1]
DVS sorption behaviour (in words) [2]: very little water absorption during the first cycle from 40% RH to 70% RH | Total uptake (moisture) ([2]; entire RH range): ~2% | Stability to the test conditions (in words) [3]: stable to the test conditions | HPLC Purity ([3]; day 0): 99.5% | TGA ([3]; day 0): 0.1% | COMPOUND A Assay ([3]; day 0, HPLC): 69.9% | COMPOUND B Assay ([3]; day 0, HPLC): 0.2% | HPLC Purity ([3]; day 7): 99.3% | TGA ([3]; day 7): 0.2% | XRPD ([3]; day 7): No change | COMPOUND A Assay ([3]; day 7, HPLC): 71.8% | COMPOUND B Assay ([3]; day 7, HPLC): 0.4% | HPLC Purity ([3]; day 14): 98.8% | TGA ([3]; day 14): 0.8% | XRPD ([3]; day 14): No change | COMPOUND A Assay ([3]; day 14, HPLC): 72.0% | COMPOUND B Assay ([3]; day 14, HPLC): 0.5% | HPLC Purity ([3]; day 28): 98.4% | TGA ([3]; day 28): 0.3% | XRPD ([3]; day 28): No change | COMPOUND A Assay ([3]; day 28, HPLC): 71.7% | COMPOUND B Assay ([3]; day 28, HPLC): 0.8%

COc1cccc2[nH]c3c4c(c5c(c3c12)C(=O)N(CN1CCN(C)CC1)C5=O)CCC4 [Sample 39-5]
Estimated Water Solubility [1]: >100 mg/mL

COc1cccc2[nH]c3c4c(c5c(c3c12)C(=O)N(CN1CCN(C)CC1)C5=O)CCC4 [Sample 13-8]
Estimated Water Solubility [1]: >100 mg/mL

COc1cccc2[nH]c3c4c(c5c(c3c12)C(=O)N(CN1CCN(C)CC1)C5=O)CCC4 [Sample 39-2]
Estimated Water Solubility [1]: <10 mg/mL

COc1cccc2[nH]c3c4c(c5c(c3c12)C(=O)N(CN1CCN(C)CC1)C5=O)CCC4 [Sample 13-6]
Estimated Water Solubility [1]: >100 mg/mL

COc1cccc2[nH]c3c4c(c5c(c3c12)C(=O)N(CN1CCN(C)CC1)C5=O)CCC4 [Sample 39-4]
Estimated Water Solubility [1]: >100 mg/mL

COc1cccc2[nH]c3c4c(c5c(c3c12)C(=O)N(CN1CCN(C)CC1)C5=O)CCC4 [Sample 31-5]
Estimated Water Solubility [1]: ~25 mg/mL

COc1cccc2[nH]c3c4c(c5c(c3c12)C(=O)N(CN1CCN(C)CC1)C5=O)CCC4 [39-5(2)]
Estimated Water Solubility [1]: >100 mg/mL

COc1cccc2[nH]c3c4c(c5c(c3c12)C(=O)N(CN1CCN(C)CC1)C5=O)CCC4 [Sample 31-3]
Estimated Water Solubility [1]: >100 mg/mL

COc1cccc2[nH]c3c4c(c5c(c3c12)C(=O)N(CN1CCN(C)CC1)C5=O)CCC4 [Sample 31-1]
Estimated Water Solubility [1]: ~25 mg/mL

COc1cccc2[nH]c3c4c(c5c(c3c12)C(=O)N(CN1CCN(C)CC1)C5=O)CCC4 [Sample 30-5]
Estimated Water Solubility [1]: ~25 mg/mL

COc1cccc2[nH]c3c4c(c5c(c3c12)C(=O)N(CN1CCN(C)CC1)C5=O)CCC4 [Sample 31-2]
Estimated Water Solubility [1]: >100 mg/mL

COc1cccc2[nH]c3c4c(c5c(c3c12)C(=O)N(CN1CCN(C)CC1)C5=O)CCC4 [Sample 30-1]
Estimated Water Solubility [1]: ~20 mg/mL

COc1cccc2[nH]c3c4c(c5c(c3c12)C(=O)N(CN1CCN(C)CC1)C5=O)CCC4 [Sample 39-1]
Estimated Water Solubility [1]: ~50 mg/mL

COc1cccc2[nH]c3c4c(c5c(c3c12)C(=O)N(CN1CCN(C)CC1)C5=O)CCC4 [Sample 13-7]
Estimated Water Solubility [1]: 50 to 100 mg/mL

COc1cccc2[nH]c3c4c(c5c(c3c12)C(=O)N(CN1CCN(C)CC1)C5=O)CCC4 [Sample 31-4]
Estimated Water Solubility [1]: >100 mg/mL

COc1cccc2[nH]c3c4c(c5c(c3c12)C(=O)N(CN1CCN(C)CC1)C5=O)CCC4 [Sample 39-3]
Estimated Water Solubility [1]: >100 mg/mL

COc1cccc2[nH]c3c4c(c5c(c3c12)C(=O)N(CN1CCN(C)CC1)C5=O)CCC4 [Sample 13-5]
Estimated Water Solubility [1]: <10 mg/mL

COc1cccc2[nH]c3c4c(c5c(c3c12)C(=O)N(CN1CCN(C)CC1)C5=O)CCC4.O=C1CC[C@@H](C(=O)O)N1
COMPOUND A Assay ([3]; day 0): 65.5% | COMPOUND B Assay ([3]; day 0): 0.6% | DSC ([3]; day 0): 198.2 | HPLC Purity ([3]; day 0): 98.6% | TGA ([3]; day 0): 0.49% | COMPOUND A Assay ([3]; day 7): 71.4% | COMPOUND B Assay ([3]; day 7): 0.6% | DSC ([3]; day 7): 199.0 | HPLC Purity ([3]; day 7): 98.7% | TGA ([3]; day 7): 0.54% | XRPD ([3]; day 7): No change | COMPOUND A Assay ([3]; day 14): 60.2% | COMPOUND B Assay ([3]; day 14): 0.8% | DSC ([3]; day 14): 198.3 | HPLC Purity ([3]; day 14): 98.2% | TGA ([3]; day 14): 0.64% | XRPD ([3]; day 14): No change | COMPOUND A Assay ([3]; day 28): 64.0% | COMPOUND B Assay ([3]; day 28): 1.2% | DSC ([3]; day 28): 198.4 | HPLC Purity ([3]; day 28): 97.2% | XRPD ([3]; day 28): No change

COc1cccc2[nH]c3c4c(c5c(c3c12)C(=O)N(CN1CCN(C)CC1)C5=O)CCC4 [39-2(2)]
Estimated Water Solubility [1]: >100 mg/mL

COc1cccc2[nH]c3c4c(c5c(c3c12)C(=O)N(CN1CCN(C)CC1)C5=O)CCC4 [Sample 13-10]
Estimated Water Solubility [1]: 10 to 20 mg/mL

COc1cccc2[nH]c3c4c(c5c(c3c12)C(=O)N(CN1CCN(C)CC1)C5=O)CCC4 [Sample 13-9]
Estimated Water Solubility [1]: <10 mg/mL

COc1cccc2[nH]c3c4c(c5c(c3c12)C(=O)N(CN1CCN(C)CC1)C5=O)CCC4 [Sample 30-3]
Estimated Water Solubility [1]: >100 mg/mL

COc1cccc2[nH]c3c4c(c5c(c3c12)C(=O)N(CN1CCN(C)CC1)C5=O)CCC4 [39-1(2)]
Estimated Water Solubility [1]: ~25 mg/mL

COc1cccc2[nH]c3c4c(c5c(c3c12)C(=O)N(CN1CCN(C)CC1)C5=O)CCC4 [Sample 13-4]
Estimated Water Solubility [1]: <10 mg/mL

COc1cccc2[nH]c3c4c(c5c(c3c12)C(=O)N(CN1CCN(C)CC1)C5=O)CCC4 [39-3(2)]
Estimated Water Solubility [1]: >100 mg/mL

COc1cccc2[nH]c3c4c(c5c(c3c12)C(=O)N(CN1CCN(C)CC1)C5=O)CCC4 [Sample 13-3]
Estimated Water Solubility [1]: 50 to 100 mg/mL
